In brackets after ≈: the same amount, converted by molar mass.
Experiments:
Assay type in all cases: functional
[1] = test system: Staphylococcus aureus; assay: Antibacterial activity against Staphylococcus aureus assessed as inhibition of bacterial growth
[2] = test system: Staphylococcus aureus; assay: Antibacterial activity against methicillin resistant Staphylococcus aureus N315 assessed as inhibition of bacterial growth
[3] = test system: Enterococcus faecalis; assay: Antibacterial activity against Enterococcus faecalis assessed as inhibition of bacterial growth
[4] = test system: Staphylococcus aureus; assay: Antibacterial activity against Staphylococcus aureus ATCC 25923 assessed as inhibition of bacterial growth
[5] = test system: Staphylococcus aureus; assay: Antibacterial activity against Staphylococcus aureus ATCC 29213 assessed as inhibition of bacterial growth
[6] = test system: Klebsiella pneumoniae; assay: Antibacterial activity against Klebsiella pneumoniae assessed as inhibition of bacterial growth
[7] = test system: Escherichia coli; assay: Antibacterial activity against Escherichia coli assessed as inhibition of bacterial growth
[8] = test system: Escherichia coli; assay: Antibacterial activity against Escherichia coli ATCC 25922 assessed as inhibition of bacterial growth
[9] = test system: Pseudomonas aeruginosa; assay: Antibacterial activity against Pseudomonas aeruginosa assessed as inhibition of bacterial growth
[10] = test system: Pseudomonas aeruginosa; assay: Antibacterial activity against Pseudomonas aeruginosa ATCC 27853 assessed as inhibition of bacterial growth
[11] = test system: Acinetobacter baumannii; assay: Antibacterial activity against Acinetobacter baumannii assessed as inhibition of bacterial growth

| SMILES | MIC [1] [µg/mL] | MIC [2] [µg/mL] | MIC [3] [µg/mL] | MIC [4] [µg/mL] | MIC [5] [µg/mL] | MIC [6] [µg/mL] | MIC [7] [µg/mL] | MIC [8] [µg/mL] | MIC [9] [µg/mL] | MIC [10] [µg/mL] | MIC [11] [µg/mL] |
| --- | --- | --- | --- | --- | --- | --- | --- | --- | --- | --- | --- |
| COc1ccc(/C=C2\S/C(=N/c3ccc4c(C)cc(=O)oc4c3)N(CCO)C2=O)cc1 | 32 (≈ 73.3 µM) | 4 (≈ 9.16 µM) | 8 (≈ 18.3 µM) | 32 (≈ 73.3 µM) | 0.5 (≈ 1.15 µM) | 128 (≈ 293 µM) | 32 (≈ 73.3 µM) | 128 (≈ 293 µM) | 64 (≈ 147 µM) | 128 (≈ 293 µM) | 8 (≈ 18.3 µM) |
| C=CCn1cc(/C=C2\S/C(=N/c3ccc4c(C)cc(=O)oc4c3)N(CCO)C2=O)c2ccccc21 | 128 (≈ 264 µM) | 128 (≈ 264 µM) | 128 (≈ 264 µM) | 32 (≈ 65.9 µM) | 64 (≈ 132 µM) | 8 (≈ 16.5 µM) | 128 (≈ 264 µM) | 128 (≈ 264 µM) | 64 (≈ 132 µM) | 32 (≈ 65.9 µM) | 64 (≈ 132 µM) |
| Cc1cc(=O)oc2cc(/N=C3/S/C(=C\c4ccccc4)C(=O)N3CCO)ccc12 | 64 (≈ 157 µM) | 64 (≈ 157 µM) | 128 (≈ 315 µM) | 128 (≈ 315 µM) | 128 (≈ 315 µM) | 256 (≈ 630 µM) | 256 (≈ 630 µM) | 256 (≈ 630 µM) | 64 (≈ 157 µM) | 64 (≈ 157 µM) | 1 (≈ 2.46 µM) |
| Cc1cc(=O)oc2cc(/N=C3/S/C(=C\c4ccc(C(F)(F)F)cc4)C(=O)N3CCO)ccc12 | 128 (≈ 270 µM) | 256 (≈ 540 µM) | 256 (≈ 540 µM) | 64 (≈ 135 µM) | 256 (≈ 540 µM) | 128 (≈ 270 µM) | 128 (≈ 270 µM) | 256 (≈ 540 µM) | 32 (≈ 67.4 µM) | 256 (≈ 540 µM) | 32 (≈ 67.4 µM) |
| CCn1cc(C(=O)O)c(=O)c2cc(F)c(N3CCNCC3)cc21 [NORFLOXACIN] | 2 (≈ 6.26 µM) | 4 (≈ 12.5 µM) | 4 (≈ 12.5 µM) | 4 (≈ 12.5 µM) | 2 (≈ 6.26 µM) | 4 (≈ 12.5 µM) | 2 (≈ 6.26 µM) | 4 (≈ 12.5 µM) | 1 (≈ 3.13 µM) | 4 (≈ 12.5 µM) | 4 (≈ 12.5 µM) |
| Cc1cc(=O)oc2cc(/N=C3/S/C(=C\c4cccs4)C(=O)N3CCO)ccc12 | 4 (≈ 9.7 µM) | 128 (≈ 310 µM) | 4 (≈ 9.7 µM) | 32 (≈ 77.6 µM) | 1 (≈ 2.42 µM) | 64 (≈ 155 µM) | 32 (≈ 77.6 µM) | 32 (≈ 77.6 µM) | 16 (≈ 38.8 µM) | 1 (≈ 2.42 µM) | 1 (≈ 2.42 µM) |
| Cc1cc(=O)oc2cc(/N=C3/S/C(=C\c4ccc([N+](=O)[O-])cc4)C(=O)N3CCO)ccc12 | 64 (≈ 142 µM) | 32 (≈ 70.9 µM) | 32 (≈ 70.9 µM) | 128 (≈ 284 µM) | 64 (≈ 142 µM) | 64 (≈ 142 µM) | 128 (≈ 284 µM) | 64 (≈ 142 µM) | 64 (≈ 142 µM) | 128 (≈ 284 µM) | 32 (≈ 70.9 µM) |
| Cc1ccc(/C=C2\S/C(=N/c3ccc4c(C)cc(=O)oc4c3)N(CCO)C2=O)c(C)c1 | 64 (≈ 147 µM) | 128 (≈ 295 µM) | 128 (≈ 295 µM) | 64 (≈ 147 µM) | 64 (≈ 147 µM) | 128 (≈ 295 µM) | 64 (≈ 147 µM) | 128 (≈ 295 µM) | 16 (≈ 36.8 µM) | 256 (≈ 589 µM) | 1 (≈ 2.3 µM) |
| Cc1cc(=O)oc2cc(/N=C3/S/C(=C\c4ccc(Cl)cc4Cl)C(=O)N3CCO)ccc12 | 256 (≈ 539 µM) | 32 (≈ 67.3 µM) | 128 (≈ 269 µM) | 128 (≈ 269 µM) | 128 (≈ 269 µM) | 64 (≈ 135 µM) | 256 (≈ 539 µM) | 256 (≈ 539 µM) | 64 (≈ 135 µM) | 128 (≈ 269 µM) | 4 (≈ 8.41 µM) |
| Cc1cc(=O)oc2cc(/N=C3/S/C(=C\C4CCCCC4)C(=O)N3CCO)ccc12 | 256 (≈ 621 µM) | 256 (≈ 621 µM) | 256 (≈ 621 µM) | 256 (≈ 621 µM) | 16 (≈ 38.8 µM) | 256 (≈ 621 µM) | 256 (≈ 621 µM) | 256 (≈ 621 µM) | 256 (≈ 621 µM) | 16 (≈ 38.8 µM) | 64 (≈ 155 µM) |
| Cc1cc(=O)oc2cc(/N=C3/S/C(=C\c4ccc(O)c(Br)c4)C(=O)N3CCO)ccc12 | 16 (≈ 31.9 µM) | 128 (≈ 255 µM) | 64 (≈ 128 µM) | 64 (≈ 128 µM) | 128 (≈ 255 µM) | 64 (≈ 128 µM) | 256 (≈ 511 µM) | 32 (≈ 63.8 µM) | 32 (≈ 63.8 µM) | 32 (≈ 63.8 µM) | 64 (≈ 128 µM) |
| Cc1ccc(/C=C2\S/C(=N/c3ccc4c(C)cc(=O)oc4c3)N(CCO)C2=O)o1 | 128 (≈ 312 µM) | 8 (≈ 19.5 µM) | 64 (≈ 156 µM) | 256 (≈ 624 µM) | 128 (≈ 312 µM) | 32 (≈ 78 µM) | 16 (≈ 39 µM) | 64 (≈ 156 µM) | 16 (≈ 39 µM) | 16 (≈ 39 µM) | 8 (≈ 19.5 µM) |
| Cc1cc(=O)oc2cc(/N=C3/S/C(=C\c4ccc(O)c(Cl)c4)C(=O)N3CCO)ccc12 | 32 (≈ 70 µM) | 64 (≈ 140 µM) | 8 (≈ 17.5 µM) | 128 (≈ 280 µM) | 256 (≈ 560 µM) | 32 (≈ 70 µM) | 16 (≈ 35 µM) | 32 (≈ 70 µM) | 32 (≈ 70 µM) | 4 (≈ 8.75 µM) | 16 (≈ 35 µM) |
